ChEMBL document CHEMBL5046300, “Potent Bactericidal Antimycobacterials Targeting the Chaperone ClpC1 Based on the Depsipeptide Natural Products Ecumicin and Ohmyungsamycin A” (2022)
≈ marks a conversion by molar mass, not a printed value. Calls of active or inactive are those of the source. The calls are words filed in the database; no cut-off is given here. *1 amine or outer side, *2 acyl side, *3 side chain or, on linkers, in order; H or OH if unused. Where a SMILES comes first, the peptide text is derived from it. Bridges are numbered along the chain shown (N, C = ends). [ ]: non-standard residue; d: D form. The star is where a group is joined. Phe(3R-OH) = O=C([C@@H](N[*:1])[C@H](O[*:3])c1ccccc1)[*:2]; NMeTrp(4-OMe) = CN[C@@H](Cc1c[nH]c2cccc(OC)c12)C(=O)O; NMeW = CN[C@@H](Cc1c[nH]c2ccccc12)C(=O)O; NMeaIle = CC[C@@H](C)[C@H](NC)C(=O)O; NMe2Val = CC(C)[C@@H](C(=O)*)N(C)C; NMeF = CN[C@@H](Cc1ccccc1)C(=O)O; NMeT = CN[C@H](C(=O)O)[C@@H](C)O; NMeL = CN[C@@H](CC(C)C)C(=O)O; NMeV = CN[C@H](C(=O)O)C(C)C; NMeA = CN[C@@H](C)C(=O)O

Columns and labels:
Escherichia coli = experiment: Antibacterial activity against Escherichia coli K-12 MG1655 assessed as bacterial growth inhibition incubated for 18 to 20 hrs by broth microdilution method; type: functional; settings: time 18-20 hrs
Salmonella enterica = experiment: Antibacterial activity against Salmonella enterica ATCC 13311 assessed as bacterial growth inhibition incubated for 18 to 20 hrs by broth microdilution method; type: functional; settings: time 18-20 hrs
[1] = test system: Yersinia pseudotuberculosis; experiment: Antibacterial activity against Yersinia pseudotuberculosis ATCC 6904 assessed as bacterial growth inhibition incubated for 18 to 20 hrs by broth microdilution method; type: functional; settings: time 18-20 hrs
Streptococcus pneumoniae = experiment: Antibacterial activity against Streptococcus pneumoniae ATCC 49619 assessed as bacterial growth inhibition incubated for 18 to 20 hrs by broth microdilution method; type: functional; settings: time 18-20 hrs
Listeria ivanovii = experiment: Antibacterial activity against Listeria ivanovii BAA-139 assessed as bacterial growth inhibition incubated for 18 to 20 hrs by broth microdilution method; type: functional; settings: time 18-20 hrs
[2] = test system: Staphylococcus epidermidis; experiment: Antibacterial activity against Staphylococcus epidermidis ATCC 14990 assessed as bacterial growth inhibition incubated for 18 to 20 hrs by broth microdilution method; type: functional; settings: time 18-20 hrs
Klebsiella aerogenes = experiment: Antibacterial activity against Klebsiella aerogenes ATCC 35029 assessed as bacterial growth inhibition incubated for 18 to 20 hrs by broth microdilution method; type: functional; settings: time 18-20 hrs
Acinetobacter baumannii = experiment: Antibacterial activity against Acinetobacter baumannii ATCC 19606 assessed as bacterial growth inhibition incubated for 18 to 20 hrs by broth microdilution method; type: functional; settings: time 18-20 hrs
Enterococcus faecium = experiment: Antibacterial activity against Enterococcus faecium ATCC 6569 assessed as bacterial growth inhibition incubated for 18 to 20 hrs by broth microdilution method; type: functional; settings: time 18-20 hrs
[3] = test system: Mycobacterium tuberculosis; experiment: Antimycobacterial activity against Mycobacterium tuberculosis H37Rv infected in human THP-1 cells assessed as log reduction in bacterial growth at 10 uM incubated for 3 to 4 weeks by intracellular killing assay; type: functional; settings: time 3-4 weeks
Brucella anthropi = experiment: Antibacterial activity against Ochrobactrum anthropi ATCC 49687 assessed as bacterial growth inhibition incubated for 18 to 20 hrs by broth microdilution method; type: functional; settings: time 18-20 hrs
Staphylococcus aureus [4] = experiment: Antibacterial activity against methicillin-sensitive Staphylococcus aureus ATCC 29213 assessed as bacterial growth inhibition incubated for 18 to 20 hrs by broth microdilution method; type: functional; settings: time 18-20 hrs
Vibrio cholerae = experiment: Antibacterial activity against Vibrio cholerae A1552 El Tor assessed as bacterial growth inhibition incubated for 18 to 20 hrs by broth microdilution method; type: functional; settings: time 18-20 hrs
Enterococcus faecalis = experiment: Antibacterial activity against Enterococcus faecalis ATCC 29212 assessed as bacterial growth inhibition incubated for 18 to 20 hrs by broth microdilution method; type: functional; settings: time 18-20 hrs
Staphylococcus aureus [5] = experiment: Antibacterial activity against methicillin-resistant Staphylococcus aureus BAA-44 assessed as bacterial growth inhibition incubated for 18 to 20 hrs by broth microdilution method; type: functional; settings: time 18-20 hrs
Klebsiella pneumoniae = experiment: Antibacterial activity against Klebsiella pneumoniae ATCC 700603 assessed as bacterial growth inhibition incubated for 18 to 20 hrs by broth microdilution method; type: functional; settings: time 18-20 hrs
Mycobacterium marinum [6] = experiment: Antimycobacterial activity against Mycobacterium marinum infected in zebrafish assessed as reduction in bacterial burden at 10 uM after 6 days post infection; type: functional; design: scale not given: the % may be the effect or the level left; settings: time 6 day
Bacillus subtilis = experiment: Antibacterial activity against Bacillus subtilis ATCC 6051 assessed as bacterial growth inhibition incubated for 18 to 20 hrs by broth microdilution method; type: functional; settings: time 18-20 hrs
Shigella sonnei = experiment: Antibacterial activity against Shigella sonnei ATCC 25931 assessed as bacterial growth inhibition incubated for 18 to 20 hrs by broth microdilution method; type: functional; settings: time 18-20 hrs
[7] = test system: Providencia alcalifaciens; experiment: Antibacterial activity against Providencia alcalifaciens ATCC 9886 assessed as bacterial growth inhibition incubated for 18 to 20 hrs by broth microdilution method; type: functional; settings: time 18-20 hrs
Pseudomonas aeruginosa = experiment: Antibacterial activity against Pseudomonas aeruginosa ATCC 27853 assessed as bacterial growth inhibition incubated for 18 to 20 hrs by broth microdilution method; type: functional; settings: time 18-20 hrs
[8] = test system: Mycobacterium tuberculosis; experiment: Antimycobacterial activity against Mycobacterium tuberculosis mc2 6230 measured after 7 days; type: functional; settings: mc2 6230, 168 h, time 7 day
[9] = test system: Mycobacterium tuberculosis; experiment: Antibacterial activity against Mycobacterium tuberculosis mc2 6230 assessed as reduction in viable cells at 10 times MIC measured for 42 days in solid media by time kill assay; type: functional
[10] = test system: Mycobacterium tuberculosis; experiment: Synergistic antimycobacterial activity against Mycobacterium tuberculosis mc2 6230 assessed as fractional inhibitory concentration incubated for 7 days in presence of ethambutol by checkerboard assay; type: functional; settings: time 7 day
[11] = test system: Mycobacterium tuberculosis; experiment: Synergistic antimycobacterial activity against Mycobacterium tuberculosis mc2 6230 assessed as fractional inhibitory concentration incubated for 7 days in presence of isoniazid by checkerboard assay; type: functional; settings: time 7 day
[12] = test system: Mycobacterium tuberculosis; experiment: Bactericidal activity against Mycobacterium tuberculosis mc2 6230 at 10 time MIC monitored for 28 days under hypoxic non-replicating culture condition by time kill assay; type: functional, organism-based; settings: time 28.0 day
Mycobacterium marinum [13] = experiment: Antimycobacterial activity against mid-exponential phase Mycobacterium marinum M strain incubated for 2 days by fluorescence assay; type: functional; settings: 48 h, time 2 day
[14] = test system: Mycobacterium tuberculosis; experiment: Synergistic antimycobacterial activity against Mycobacterium tuberculosis mc2 6230 assessed as fractional inhibitory concentration incubated for 7 days in presence of clofazimine by checkerboard assay; type: functional; settings: time 7 day
[15] = test system: Mycolicibacterium smegmatis; experiment: Enhancement of hexameric Mycobacterium smegmatis ClpC1 ATPase activity assessed as fold increase at 100 uM incubated for 30 mins by ATP/NADH spectrophotometric analysis; settings: filed as activator
[16] = test system: Mycobacterium tuberculosis; experiment: Synergistic antimycobacterial activity against Mycobacterium tuberculosis mc2 6230 assessed as fractional inhibitory concentration incubated for 7 days in presence of pyrazinamide by checkerboard assay; type: functional; settings: time 7 day
[17] = test system: Mycobacterium tuberculosis; experiment: Antimycobacterial activity against Mycobacterium tuberculosis mc2 6230 measured after 7 days by Time kill assay; type: functional, organism-based; settings: time 7.0 day
[18] = test system: Mycolicibacterium smegmatis; experiment: Enhancement of Mycobacterium smegmatis ClpC1 ATPase activity assessed as inhibition of ClpC1/ClpP1P2 complex-mediated beta-casein proteolysis incubated for 30 to 60 mins by in vitro degradation assay; settings: filed as activator, time 30-60 min
[19] = test system: Mycobacterium tuberculosis; experiment: Synergistic antimycobacterial activity against Mycobacterium tuberculosis mc2 6230 assessed as fractional inhibitory concentration incubated for 7 days in presence of rifampicin by checkerboard assay; type: functional; settings: time 7 day
Mycobacterium marinum [20] = experiment: Antimycobacterial activity against tdTomato fluorescent Mycobacterium marinum infected in zebrafish assessed as reduction in bacterial burden at 25 uM pre-infected with bacteria for 4 to 5 days followed by compound addition and measured after day 6 post infection by microscopic analysis relative to control; type: functional; design: scale not given: the % may be the effect or the level left; settings: time 4-5 day
[21] = test system: Mycobacterium tuberculosis; experiment: Synergistic antimycobacterial activity against Mycobacterium tuberculosis mc2 6230 assessed as fractional inhibitory concentration incubated for 7 days in presence of bedaquiline by checkerboard assay; type: functional; settings: time 7 day
Mycobacterium marinum [22] = experiment: Antimycobacterial activity against Mycobacterium marinum infected in zebrafish assessed as reduction in bacterial burden at 10 uM in presence of rifampicin after 6 days post infection; type: functional; design: scale not given: the % may be the effect or the level left; settings: time 6 day

| Compound | MIC (Escherichia coli) [µM] | MIC (Salmonella enterica) [µM] | MIC [1] [µM] | MIC (Streptococcus pneumoniae) [µM] | MIC (Listeria ivanovii) [µM] | MIC [2] [µM] | MIC (Klebsiella aerogenes) [µM] | MIC (Acinetobacter baumannii) [µM] | MIC (Enterococcus faecium) [µM] | Activity [3] [log10CFU/ml] | MIC (Brucella anthropi) [µM] | MIC (Staphylococcus aureus [4]) [µM] | MIC (Vibrio cholerae) [µM] | MIC (Enterococcus faecalis) [µM] | MIC (Staphylococcus aureus [5]) [µM] | MIC (Klebsiella pneumoniae) [µM] | Activity (Mycobacterium marinum [6]) [%] | MIC (Bacillus subtilis) [µM] | MIC (Shigella sonnei) [µM] | MIC [8] [µM] | other results |
| --- | --- | --- | --- | --- | --- | --- | --- | --- | --- | --- | --- | --- | --- | --- | --- | --- | --- | --- | --- | --- | --- |
| CO[C@H]1/C=C/O[C@@]2(C)Oc3c(C)c(O)c4c(O)c(c(/C=N/N5CCN(C)CC5)c(O)c4c3C2=O)NC(=O)/C(C)=C\C=C\[C@H](C)[C@H](O)[C@@H](C)[C@@H](O)[C@@H](C)[C@H](OC(C)=O)[C@@H]1C [RIFAMPIN] | 4 (≈ 3.29 µg/mL) | 2 (≈ 1.65 µg/mL) | 11 (≈ 9.05 µg/mL) | 0.11 (≈ 0.0905 µg/mL) | 0.19 (≈ 0.156 µg/mL) | 0.02 (≈ 0.0165 µg/mL) | 8 (≈ 6.58 µg/mL) | 1 (≈ 0.823 µg/mL) | 21 (≈ 17.3 µg/mL) | 1 | 4 (≈ 3.29 µg/mL) | 0.02 (≈ 0.0165 µg/mL) | 128 (≈ 105 µg/mL) | 1 (≈ 0.823 µg/mL) | 0.01 (≈ 0.00823 µg/mL) | 16 (≈ 13.2 µg/mL) | 27 | 4 (≈ 3.29 µg/mL) | 1.7 (≈ 1.4 µg/mL) | – | MIC [7]: 8 µM (≈ 6.58 µg/mL); MIC (Pseudomonas aeruginosa): 53 µM (≈ 43.6 µg/mL) |
| CC[C@@H](C)[C@@H](C(=O)N[C@@H]1C(=O)N(C)[C@@H]([C@@H](C)O)C(=O)N[C@@H](C(C)C)C(=O)N(C)[C@@H](CC(C)C)C(=O)N[C@@H](C(C)C)C(=O)N(C)[C@@H](C(C)C)C(=O)N(C)[C@@H](Cc2c[nH]c3cccc(OC)c23)C(=O)N[C@@H](C(C)C)C(=O)N[C@@H]([C@H](O)c2ccccc2)C(=O)N[C@@H](C(C)C)C(=O)O[C@@H]1C)N(C)C(=O)[C@@H](NC(=O)[C@H](C(C)C)N(C)C)C(C)C (NMe2Val-V[NMeaIle]T[NMeT]V[NMeL]V[NMeV][NMeTrp(4-OMe)]V[Phe(3R-OH)]V; ester 3-C) | – | – | – | – | – | – | – | – | – | 1 | – | – | – | – | – | – | – | – | – | 1 (≈ 1.6 µg/mL) | – |
| NNC(=O)c1ccncc1 | – | – | – | – | – | – | – | – | – | – | – | – | – | – | – | – | – | – | – | – | Activity ([9]; time 42.0 day): inactive |
| CN[C@H](C(=O)N[C@H](C(=O)N[C@@H]1C(=O)N(C)[C@@H]([C@@H](C)O)C(=O)N[C@@H](C(C)C)C(=O)N(C)[C@@H](CC(C)C)C(=O)N[C@@H](C(C)C)C(=O)N(C)[C@@H](C)C(=O)N(C)[C@@H](Cc2c[nH]c3ccccc23)C(=O)N[C@@H](C(C)C)C(=O)N[C@@H](Cc2ccccc2)C(=O)N[C@@H](C(C)C)C(=O)O[C@@H]1C)C(C)C)C(C)C (H-[NMeV]VT[NMeT]V[NMeL]V[NMeA][NMeW]VFV; ester 3-C) | > 128 | > 128 | > 128 | > 128 | > 128 | > 128 | 128 (≈ 177 µg/mL) | > 128 | > 128 | – | > 128 | > 128 | > 128 | > 128 | > 128 | > 128 | 50 | 128 (≈ 177 µg/mL) | > 128 | 0.5 (≈ 0.692 µg/mL) | Activity ([9]; time 42 day): 6 log10CFU/ml; FIC [10]: 0.75; FIC [11]: 2; Activity [12]: Active; MIC50 (Mycobacterium marinum [13]): 1.44 µM (≈ 1.99 µg/mL); FIC [14]: 2; fold change (FC) [15]: 3; FIC [16]: 2; Activity [17]: Active; MIC [7]: > 128 µM; Activity [18]: Active; FIC [19]: 0.375; Activity (Mycobacterium marinum [20]): 76%; MIC (Pseudomonas aeruginosa): > 128 µM; FIC [21]: 3; Activity (Mycobacterium marinum [22]): 83% |
| CN[C@H](C(=O)N[C@H](C(=O)N[C@@H]1C(=O)N(C)[C@@H]([C@@H](C)O)C(=O)N[C@@H](C(C)C)C(=O)N(C)[C@@H](CC(C)C)C(=O)N[C@@H](C(C)C)C(=O)N(C)[C@@H](Cc2ccccc2)C(=O)N(C)[C@@H](Cc2c[nH]c3ccccc23)C(=O)N[C@@H](C(C)C)C(=O)N[C@@H](Cc2ccccc2)C(=O)N[C@@H](C(C)C)C(=O)O[C@@H]1C)C(C)C)C(C)C (H-[NMeV]VT[NMeT]V[NMeL]V[NMeF][NMeW]VFV; ester 3-C) | – | – | – | – | – | – | – | – | – | – | – | – | – | – | – | – | – | – | – | 0.125 (≈ 0.183 µg/mL) | inhibition [18]: Active |
